Source: ChEMBL document CHEMBL1129347, “Topographical amino acid substitution in position 10 of glucagon leads to antagonists/partial agonists with greater binding differences” (J Med Chem, 1996)

Target: Glucagon receptor (Rattus norvegicus, UniProt P30082)
Assay: Inhibition of [125I]glucagon binding towards Glucagon receptor

Sequence of Glucagon receptor (P30082 whole entry): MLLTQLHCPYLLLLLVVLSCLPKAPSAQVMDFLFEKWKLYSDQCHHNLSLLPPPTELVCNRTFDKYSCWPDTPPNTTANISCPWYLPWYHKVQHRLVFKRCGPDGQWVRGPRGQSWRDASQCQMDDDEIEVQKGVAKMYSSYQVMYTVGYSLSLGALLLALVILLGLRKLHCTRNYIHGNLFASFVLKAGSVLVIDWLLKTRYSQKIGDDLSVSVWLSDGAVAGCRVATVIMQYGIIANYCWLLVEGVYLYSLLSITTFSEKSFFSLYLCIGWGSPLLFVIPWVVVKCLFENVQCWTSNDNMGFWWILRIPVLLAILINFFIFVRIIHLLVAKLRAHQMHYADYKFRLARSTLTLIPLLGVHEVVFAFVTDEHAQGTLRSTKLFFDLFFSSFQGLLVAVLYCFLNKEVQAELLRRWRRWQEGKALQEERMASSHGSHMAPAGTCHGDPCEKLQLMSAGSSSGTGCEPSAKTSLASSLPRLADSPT

Point of comparison: `CSCC[C@H](NC(=O)[C@H](CC(C)C)NC(=O)[C@H](Cc1c[nH]c2ccccc12)NC(=O)[C@H](CCC(N)=O)NC(=O)[C@@H](NC(=O)[C@H](Cc1ccccc1)NC(=O)[C@H](CC(=O)O)NC(=O)[C@H](CCC(N)=O)NC(=O)[C@H](C)NC(=O)[C@H](CCCN=C(N)N)NC(=O)[C@H](CCCN=C(N)N)NC(=O)[C@H](CO)NC(=O)[C@H](CC(=O)O)NC(=O)[C@H](CC(C)C)NC(=O)[C@H](Cc1ccc(O)cc1)NC(=O)[C@H](CCCCN)NC(=O)[C@H](CO)NC(=O)[C@@H](NC(=O)[C@H](CCC(=O)O)NC(=O)[C@H](CO)NC(=O)[C@@H](NC(=O)[C@H](Cc1ccccc1)NC(=O)[C@H](Cc1ccc(O)cc1)NC(=O)CNC(=O)[C@H](CCC(N)=O)NC(=O)[C@@H](N)CO)[C@@H](C)O)[C@H](C)c1ccccc1)C(C)C)C(=O)N[C@@H](CC(N)=O)C(=O)N[C@H](C(N)=O)[C@@H](C)O`, IC50 10 nM. Against it:
- CSCC[C@H](NC(=O)[C@H](CC(C)C)NC(=O)[C@H](Cc1c[nH]c2ccccc12)NC(=O)[C@H](CCC(N)=O)NC(=O)[C@@H](NC(=O)[C@H](Cc1ccccc1)NC(=O)[C@H](CC(=O)O)NC(=O)[C@H](CCC(N)=O)NC(=O)C(C)NC(=O)[C@H](CCCN=C(N)N)NC(=O)[C@H](CCCN=C(N)N)NC(=O)[C@H](CO)NC(=O)[C@H](CC(=O)O)NC(=O)[C@H](CC(C)C)NC(=O)[C@H](Cc1ccc(O)cc1)NC(=O)[C@H](CCCCN)NC(=O)[C@H](CO)NC(=O)C(C)NC(=O)[C@H](CCC(=O)O)NC(=O)[C@H](CO)NC(=O)[C@@H](NC(=O)[C@H](Cc1ccccc1)NC(=O)[C@H](Cc1ccc(O)cc1)NC(=O)CNC(=O)[C@H](CCC(N)=O)NC(=O)[C@@H](N)CO)[C@@H](C)O)C(C)C)C(=O)N[C@@H](CC(N)=O)C(=O)N[C@H](C(N)=O)[C@@H](C)O (stereo in doubt) — 51-fold higher, 510 nM
- CSCC[C@H](NC(=O)[C@H](CC(C)C)NC(=O)[C@H](Cc1c[nH]c2ccccc12)NC(=O)[C@H](CCC(N)=O)NC(=O)[C@@H](NC(=O)[C@H](Cc1ccccc1)NC(=O)[C@H](CC(=O)O)NC(=O)[C@H](CCC(N)=O)NC(=O)[C@H](C)NC(=O)[C@H](CCCN=C(N)N)NC(=O)[C@H](CCCN=C(N)N)NC(=O)[C@H](CO)NC(=O)[C@H](CC(=O)O)NC(=O)[C@H](CC(C)C)NC(=O)[C@H](Cc1ccc(O)cc1)NC(=O)[C@H](CCCCN)NC(=O)[C@H](CO)NC(=O)[C@@H](Cc1ccc(O)cc1)NC(=O)[C@H](CCC(=O)O)NC(=O)[C@H](CO)NC(=O)[C@@H](NC(=O)[C@H](Cc1ccccc1)NC(=O)[C@H](Cc1ccc(O)cc1)NC(=O)CNC(=O)[C@H](CCC(N)=O)NC(=O)[C@@H](N)CO)[C@@H](C)O)C(C)C)C(=O)N[C@@H](CC(N)=O)C(=O)N[C@H](C(N)=O)[C@@H](C)O — 7.4-fold higher, 74 nM
- CSCC[C@H](NC(=O)[C@H](CC(C)C)NC(=O)[C@H](Cc1c[nH]c2ccccc12)NC(=O)[C@H](CCC(N)=O)NC(=O)[C@@H](NC(=O)[C@H](Cc1ccccc1)NC(=O)[C@H](CC(=O)O)NC(=O)[C@H](CCC(N)=O)NC(=O)[C@H](C)NC(=O)[C@H](CCCNC(=N)N)NC(=O)[C@H](CCCNC(=N)N)NC(=O)[C@H](CO)NC(=O)[C@H](CC(=O)O)NC(=O)[C@H](CC(C)C)NC(=O)[C@H](Cc1ccc(O)cc1)NC(=O)[C@H](CCCCN)NC(=O)[C@H](CO)NC(=O)[C@@H](Cc1ccccc1)NC(=O)[C@H](CCC(=O)O)NC(=O)[C@H](CO)NC(=O)[C@@H](NC(=O)[C@H](Cc1ccccc1)NC(=O)[C@H](Cc1ccc(O)cc1)NC(=O)CNC(=O)[C@H](CCC(N)=O)NC(=O)[C@@H](N)CO)[C@@H](C)O)C(C)C)C(=O)N[C@@H](CC(N)=O)C(=O)N[C@H](C(N)=O)[C@@H](C)O — 3.5-fold higher, 34.5 nM
- CSCC[C@H](NC(=O)[C@H](CC(C)C)NC(=O)[C@H](Cc1c[nH]c2ccccc12)NC(=O)[C@H](CCC(N)=O)NC(=O)[C@@H](NC(=O)[C@H](Cc1ccccc1)NC(=O)[C@H](CC(=O)O)NC(=O)[C@H](CCC(N)=O)NC(=O)[C@H](C)NC(=O)[C@H](CCCNC(=N)N)NC(=O)[C@H](CCCNC(=N)N)NC(=O)[C@H](CO)NC(=O)[C@H](CC(=O)O)NC(=O)[C@H](CC(C)C)NC(=O)[C@H](Cc1ccc(O)cc1)NC(=O)[C@H](CCCCN)NC(=O)[C@H](CO)NC(=O)[C@H](C)NC(=O)[C@H](CCC(=O)O)NC(=O)[C@H](CO)NC(=O)[C@@H](NC(=O)[C@H](Cc1ccccc1)NC(=O)[C@H](Cc1ccc(O)cc1)NC(=O)CNC(=O)[C@H](CCC(N)=O)NC(=O)[C@@H](N)CO)[C@@H](C)O)C(C)C)C(=O)N[C@@H](CC(N)=O)C(=O)N[C@H](C(N)=O)[C@@H](C)O — 40-fold higher, 395 nM
- CSCC[C@H](NC(=O)[C@H](CC(C)C)NC(=O)[C@H](Cc1c[nH]c2ccccc12)NC(=O)[C@H](CCC(N)=O)NC(=O)[C@@H](NC(=O)[C@H](Cc1ccccc1)NC(=O)[C@H](CC(=O)O)NC(=O)[C@H](CCC(N)=O)NC(=O)[C@H](C)NC(=O)[C@H](CCCNC(=N)N)NC(=O)[C@H](CCCNC(=N)N)NC(=O)[C@H](CO)NC(=O)[C@H](CC(=O)O)NC(=O)[C@H](CC(C)C)NC(=O)[C@H](Cc1ccc(O)cc1)NC(=O)[C@H](CCCCN)NC(=O)[C@H](CO)NC(=O)[C@H](Cc1ccccc1)NC(=O)[C@H](CCC(=O)O)NC(=O)[C@H](CO)NC(=O)[C@@H](NC(=O)[C@H](Cc1ccccc1)NC(=O)[C@H](Cc1ccc(O)cc1)NC(=O)CNC(=O)[C@H](CCC(N)=O)NC(=O)[C@@H](N)CO)[C@@H](C)O)C(C)C)C(=O)N[C@@H](CC(N)=O)C(=O)N[C@H](C(N)=O)[C@@H](C)O — 2.4-fold lower, 4.1 nM
- CSCC[C@H](NC(=O)[C@H](CC(C)C)NC(=O)[C@H](Cc1c[nH]c2ccccc12)NC(=O)[C@H](CCC(N)=O)NC(=O)[C@@H](NC(=O)[C@H](Cc1ccccc1)NC(=O)[C@H](CC(=O)O)NC(=O)[C@H](CCC(N)=O)NC(=O)[C@H](C)NC(=O)[C@H](CCCN=C(N)N)NC(=O)[C@H](CCCN=C(N)N)NC(=O)[C@H](CO)NC(=O)[C@H](CC(=O)O)NC(=O)[C@H](CC(C)C)NC(=O)[C@H](Cc1ccc(O)cc1)NC(=O)[C@H](CCCCN)NC(=O)[C@H](CO)NC(=O)[C@H](Cc1ccc(O)cc1)NC(=O)[C@H](CCC(=O)O)NC(=O)[C@H](CO)NC(=O)[C@@H](NC(=O)[C@H](Cc1ccccc1)NC(=O)[C@H](Cc1ccc(O)cc1)NC(=O)CNC(=O)[C@H](CCC(N)=O)NC(=O)[C@@H](N)CO)[C@@H](C)O)C(C)C)C(=O)N[C@@H](CC(N)=O)C(=O)N[C@H](C(N)=O)[C@@H](C)O — 4.3-fold lower, 2.3 nM
